In a melting point compilation (Tetko et al.; mined from patent text by program, amines drawn as free bases though some values may be those of a salt):

melting point [°C]	Compound
220 to 221	O=C1Nc2ccccc2N(C(=O)CN2CCCCC2CN2CCCCC2)c2ccccc21 (stereo not given)
234 to 235	O=C(NOCc1ccccc1)c1ccc(CNC(=O)c2cn3c4c(cccc24)CCC3)cc1
203 to 208	COc1cccc(C=C2N=C(c3ccc([N+](=O)[O-])cc3)OC2=O)c1OC
91 to 93	CC(CS(=O)(=O)C(C)c1ccccc1)C(=O)O (stereo not given)
270 to 271	N#CN=C(Nc1ccccc1)Nc1ccc(C#N)cc1O
155 to 158	COc1ccccc1N1CCN(CC(Cc2ccccc2)C(=O)O)CC1 (stereo not given)
204 to 205	COc1ccc2c(C(=O)O)cccc2c1SC(F)(F)F
153 to 155	Cc1ccc(NC(=O)c2cccc(C(F)(F)F)c2)cc1Br
55 to 58	C=CCCc1cc(C2(c3ccc(OC(F)F)cc3)N=C(N)N(C)C2=O)ccc1F (stereo not given)
63 to 66	CCC1COc2ccccc2C(=O)C1=O (stereo not given)
194 to 195	O=C(Nc1cccc(S(=O)(=O)C(F)(F)F)c1)c1ccc2ccccc2c1O
105	CC(C)(C)C(=O)Oc1ccc(-c2nn(C3CCCC3)c3c(F)cccc23)cc1
99 to 100	O=Cc1sccc1Sc1ccccc1
92 to 97	COc1cc(F)ccc1-c1ccc(S(=O)(=O)N2c3ccccc3CC2C(=O)NCc2ccccc2N)cc1 (stereo not given)
158 to 159	NC(=O)CCc1conc1-c1ccc(Cl)cc1
99 to 101	Cc1cn(C(C)C(N)=O)nc1-c1ccccc1 (stereo not given)
169 to 171	CC(=O)Nc1ccc(Nc2ccccc2)cc1
220 to 222	O=C(NCCc1c[nH]cn1)c1[nH]c2ccc(Cl)cc2c1S(=O)(=O)c1ccccc1
243 to 245	Cc1nc(-n2ccc(OCc3ccc(F)cc3)cc2=O)sc1C(=O)NCc1ccccc1
123 to 124	CCCCCc1c(C(C)C)cc(C(C)C)c(C(C)=O)c1-c1ccc(F)cc1
112 to 114	CC(=O)c1c(O)cccc1OCC(O)COc1ccc(Cl)cc1 (stereo not given)
147	CN(C)c1ccc(CNC(=O)C(Cc2ccccc2)NC(=O)Nc2ccc(C(=N)N)cc2)cc1 (stereo not given)
199 to 201	COc1ccc(CC(=O)NC(NC(Cc2ccccc2C)=NC#N)C(C)(C)C)cc1 (stereo not given)
236 to 237	COc1cccc(CNC(=O)c2nc3onc(C)c3c(=O)[nH]2)c1
108 to 110	Cn1c(-c2ccccc2)cc2cc(N)ccc21
239 to 243	COc1ccc(C(OCC2OC(n3cnc4c(N)nc(F)nc43)CC2O)(c2ccccc2)c2ccc(OC)cc2)cc1 (stereo not given)

melting point [°C]	Compound
220	Cn1c(=O)[nH]c2cc(CC(=O)O)ccc21
246 to 248	N#CC(C#N)=C1C(=O)Nc2ccc(S(=O)(=O)N3CCCC3COc3ccccc3)cc21 (stereo not given)
150 to 152	Fc1ccccc1-c1c(OCc2nc3n(n2)CCCC3)nn2c(-c3ccccc3F)nncc12
164 to 165	O=C(Nc1ccccc1)c1cccc(Nc2cc(Cl)cc(Cl)c2)c1
128 to 130	CS(=O)(=O)Nc1cccc(NC(=O)C(=O)N2CCC(Cc3ccccc3)CC2)c1
299	NC(=O)c1ccc2c(c1)C(=O)c1ccccc1C2=O
71 to 72	CN(C)c1cccc(Oc2cccc(Cl)n2)c1
190 to 193	COc1ccc(-c2cc(C(=O)O)n(C)n2)cc1
135 to 139	CCNS(=O)(=O)c1nc2ccccc2n1CC
158 to 160	CCOC(=O)C1(Cc2ccccc2)CC(=O)N(c2ccnc(NC(=O)NCc3ccccn3)c2)C1 (stereo not given)
142	CCOC(=O)OCC(F)(F)Cn1nc(C)c(-c2ccc3c(c2)NC(=O)CO3)c1-c1ccc(F)cc1
215 to 222	O=C(O)CCc1cc2cc(Cl)ccc2n1S(=O)(=O)c1cccc2cccnc12
135 to 136	CCOC(=O)C(=O)C(C#N)c1ccc(Cl)cc1 (stereo not given)
154 to 157	CC(C)(C)CCNC(=O)c1ccc(C#N)cc1
166 to 167	CCOC(C)n1c(CCc2cccc(O)c2)nc(-c2ccccc2)c1-c1ccccc1 (stereo not given)
180 to 182	NC(=O)c1nnn(Cc2cc(Cl)c(Sc3ccc(Cl)cc3)c(Cl)c2)c1N
116	CC(C)(C)OC(=O)N[C@H](CO)Cc1ccc(-c2ccccc2)cc1
108	C=C(c1ccccc1)[C@@H](C)[C@H](NC(=O)C(F)(F)F)C(=O)O
196 to 198	O=C(O)c1cc(NC(=O)C(CS)Cc2ccccc2)ccc1N1CCCC1 (stereo not given)
62 to 63	C=C(C)COc1cc(C(=O)OC)ccc1OC
125 to 127	Cc1cc(C)c(Cc2ccc(=O)[nH]n2)c(C)c1
102 to 104	CCSC1C(=O)N=C(NC(=O)Nc2cccc(Cl)c2)N1C (stereo not given)
113 to 115	O=C1c2cccc(Br)c2C(=O)N1CCCn1cncn1
172 to 173	CC#CCOc1ccc(SC(C(=O)NO)c2ccccc2OC)cc1 (stereo not given)
135 to 136	CCc1cccc(C)c1CNc1nc(OCCOC)cc(NC)c1[N+](=O)[O-]
63	COc1ccccc1Cc1ccc(Cl)nn1

The remaining lines, values behind:

Compound	melting point [°C]
NC(=O)c1ccc(CCCOCCCCCCNCC(O)c2cc(Cl)c(N)c(Cl)c2)cc1 (stereo not given)	91 to 94
Nc1ccc(C2Oc3cc4c(cc3O2)CC2COC(=O)N2N=C4)cc1 (stereo not given)	173 to 175
COc1ccc(CNC(=O)c2c(NC(=O)c3ccc(C(=O)O)cc3)sc3c2CCCC3)cc1OC	> 270
CCOC(=O)N1c2cc(OC)c(OC)cc2C(=O)CC1C (stereo not given)	94 to 95
O=C(CNC(=O)[C@@H]1CCCN1)Nc1ccc([N+](=O)[O-])cc1C(=O)c1ccccc1	165 to 167
CCC(O)(c1ccc(OCCN2CCOCC2)cc1)c1cccc(C(F)(F)F)c1 (stereo not given)	73 to 74
CCc1nn(CCO)c(N)c1Cc1cc(Cl)cc(Cl)c1	135
O=C1c2c(-c3ccccc3F)noc2CCC1CCCN1CCN(C(c2ccc(F)cc2)c2ccc(F)cc2)CC1 (stereo not given)	95 to 97
OC1CC2OCCN3CCC4c5ccccc5N1C4C23 (stereo not given)	180
CCC(C)(C)CNc1c(N=O)c(C)nn1C	45 to 50
CCCCCC(=O)Nc1ccn(C2OC(CO)C(O)C2O)c(=O)n1 (stereo not given)	131 to 136
O=C1c2cc(Cl)c(Cl)cc2C(O)N1CCCl (stereo not given)	147 to 149
COc1cc2sc(C3=NNC(=O)CC3C)cc2cc1OCCCN1CCCCC1 (stereo not given)	198 to 200
Cc1cc(C)c2c(c1)SCC2c1ccc(C(C)C)cc1 (stereo not given)	74 to 75
CCc1ncnc(O)c1F	112 to 114
CC(=O)OC1CCCC2=CC=C3C4CCC(C(C)CCCC(C)C)C4(C)CCC3C21C (stereo not given)	105 to 106
CCCCCCCCC1OC(=O)c2cc(N)ccc21 (stereo not given)	124 to 125
Cc1cc(C#Cc2ccc(F)cc2)nc(Oc2cc(C(F)(F)F)nn2C)c1	86 to 87
CCN(CC)c1nc2cc(C)nn2c2c1cnc1c2cnn1CC	106 to 108
O=c1nc(-c2cccc(CN3CCN(c4ccc(F)cc4)CC3)n2)sc2ccccc12	156 to 157
CC(C)(C)C(NC(=O)c1cc(Cl)cc(Cl)c1)Nc1c(Nc2cccnc2)c(=O)c1=O (stereo not given)	260 to 262
CC(CS)C(=O)NC(C(=O)O)C(C)C (stereo not given)	150 to 157
CC(C)(C)[C@@H]1CCc2nc3sc(C(=O)N[C@H](CN)c4cccc(NC(=O)c5ccno5)c4)cc3cc2C1	98 to 102
Cn1cc(Br)cc([N+](=O)[O-])c1=O	122 to 123

Compound	melting point [°C]
CN1CCN(c2ccc(C(=O)NCCCCCCCCCCO[N+](=O)[O-])cn2)CC1	62 to 64
O=[N+]([O-])c1ccc(C(c2cccs2)C(Cc2cccs2)N2CCC(Cc3ccccc3)CC2)cc1 (stereo not given)	124 to 126
C#Cc1ccc(CO[C@@H]2COc3nc([N+](=O)[O-])cn3C2)nc1	135 to 136
N#Cc1ccc(N2CCC(CCO)CC2)c2ccccc12	128 to 129
O=C1N(CCCCN2CCN(c3cn(-c4ccc(F)cc4)c4ccccc34)CC2)CSC12CCCCC2	134 to 136
CCOc1cc(CN2CCN(c3ccc(C(=O)NC)cc3)CC2)cc2c1OC(C)C(=O)N2 (stereo not given)	228 to 233
CS(=O)(=O)Nc1cccc(Nc2nc(NCC3CCCCN3)c3nc[nH]c3n2)c1 (stereo not given)	147 to 150
Cc1c(C)c2c(c(C)c1NC(=O)CC(C)(C)C)C(c1cccc(C=O)c1)CO2 (stereo not given)	178 to 179
NC(=O)CNC(=O)c1nccc(-c2cccc3cc(Cc4cccc(C(F)(F)F)c4)sc23)n1	241 to 242
FC(F)(F)c1cccc(CN2C(=NCCCn3ccnc3)c3cccc4cccc2c34)c1	108 to 109
COc1cc(O)c2c(c1)OC(C(C)(C)C=O)CC2=O (stereo not given)	93 to 94
Cc1ccccc1Cc1nc[nH]c1C	138 to 140
CCCCCCCC(=O)Nc1ccc(OCC(O)CNC(C)C)c(C#N)c1 (stereo not given)	116 to 118
CC(C)(C)NC(=S)Nc1cccc(SCCCC#N)n1	156 to 157
Cc1ccc(OCCOCCCCCCNCc2c(CO)ccc(O)c2CO)cc1C	65 to 68
O=C(NC(c1ccc([N+](=O)[O-])cc1)P(=O)(Oc1ccccc1)Oc1ccccc1)N(c1ccccc1)c1ccccc1 (stereo not given)	157 to 162
O=c1[nH]c2cccc(Cl)c2s1	202 to 203
COC(=O)[C@@H]1C[C@H](Oc2cc(-c3nc(C(C)C)cs3)nc3c(C)c(OC)ccc23)C[C@H]1C(=O)O	135
O=C(O)C(=O)c1ccc(OCCOc2ccc(F)cc2)cc1	97 to 98
CC(C)(C)OC(=O)COc1cc(NC(=O)OC(C)(C)C)c([N+](=O)[O-])cc1I	103
COc1cc2c(cc1-c1nc3cc(Cl)ccc3o1)oc1ccccc12	191 to 193
COc1ccc(CCOc2ccc(NC(=O)c3cc(F)cc(N4CCCCC4)c3)c3ccccc23)cc1OC	158 to 160
COc1cc2c(cc(C(=O)OCc3ccccc3)n2CCC#N)c(C)c1C	140
CCOC(=O)C1=CC2(CCC1S(=O)(=O)Nc1ccc(F)cc1Cl)OCCO2 (stereo not given)	117 to 119
